# Several values for one entry are separate records, joined by “and”; a condition that tells them apart may be missing. Identical values can stand only once. Non-standard residues stand in square brackets, D forms with d. Residues, ends and D or L forms follow the SMILES beside them. Hyp = O=C(O)[C@@H]1C[C@@H](O)CN1
# Columns and labels:
# Bradykinin receptor = molecular target: T1, Bradykinin receptor (Mus musculus, UniProt P32299); assay: Cell culture method: inhibition of bradykinin-induced increase in cytosolic free calcium in fura-2 loaded NG108-15 cells; format: cell-based; settings: for agonist / antagonist activity in this assay: result in words
# T1 construct: suspensions of cultured NG108-15 cells loaded with the Ca²⁺-sensitive fluorescent indicator fura-2; endogenous in cells; host or cells: NG108-15 cells (University of California at San Francisco, Cell Culture Facility)
# T1 sequence (P32299 1-392): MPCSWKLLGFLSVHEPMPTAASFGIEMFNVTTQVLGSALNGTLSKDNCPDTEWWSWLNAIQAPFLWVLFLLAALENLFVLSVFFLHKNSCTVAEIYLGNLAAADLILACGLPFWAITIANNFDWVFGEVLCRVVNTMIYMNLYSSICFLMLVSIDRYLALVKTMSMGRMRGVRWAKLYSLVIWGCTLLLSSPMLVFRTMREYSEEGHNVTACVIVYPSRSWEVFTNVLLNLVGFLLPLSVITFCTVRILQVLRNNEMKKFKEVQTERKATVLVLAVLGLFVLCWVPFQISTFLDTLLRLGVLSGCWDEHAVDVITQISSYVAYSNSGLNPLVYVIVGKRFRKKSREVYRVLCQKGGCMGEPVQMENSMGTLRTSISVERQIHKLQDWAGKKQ
# Experimental: In many different tissues and isolated cell populations, bradykinin induces a receptor mediated rise in the concentration of cytosolic free calcium ([Ca²⁺]i). In cultured NG108-15 neuronal cells (University of California at San Francisco, Cell Culture Facility, San Francisco, California), bradykinin increases [Ca²⁺]i in a dose dependent manner from a basal concentration of about 260 nM to approximately 1000 nM at a maximally effective concentration of bradykinin (1 X 10⁻⁶M). The half maximally effective concentration (EC₅₀) of bradykinin is 3 X 10⁻⁹M. Bradykinin receptor antagonist potency is evaluated by determining the concentration of antagonist required to inhibit by 50% (IC₅₀) the increase in [Ca²⁺]i induced by 1 X 10⁻⁹M bradykinin (Bachem, Torrance, CA). NG108-15 cells are cultured in […] Corning flasks (Fisher Scientific, Cincinnati, OH) in Dulbecco's modified minimal essential medium (high glucose; Gibco, Grand Island, NY) containing 5% fetal bovine serum (Hyclone, Logan, UT) and HAT (hypoxanthine-aminopterin-thymidine, Sigma, St. Louis, MO). The concentration of cytosolic free Ca²⁺ ([Ca²⁺]i) is measured in suspensions of cultured NG108-15 cells loaded with the Ca²⁺-sensitive fluorescent indicator fura-2 essentially as described by Osugi et al. (Journal Pharmacol. Exp. Ther., Vol. 240, (1987), pp. 617-622). Flasks of confluent cells are incubated for 60 minutes at 37°C in 20 mls of HEPES-buffered saline [140 mM NaCl, 5.4 mM KCl, 0.8 mM MgSO₄, 1.0 mM CaCl₂, 20 mM HEPES (N-2-. hydroxyethylpiperazine-N′-2-ethanesulfonic acid; Behring Diagnostics, LaJolla, CA), 10 mM glucose, 0.25% bovine serum albumin (Cat. #A-4503; Sigma Chemical Co., St. Louis, MO)] containing fura-2 acetoxymethyl ester (Molecular Probes, Inc., Eugene, OR) at a final concentration of 2 µM. The flasks are then washed twice with 30 mls of HEPES-buffered saline and the cells detached from the flasks in 15 mls of HEPES-buffered saline. The cell suspension is centrifuged at 25°C for 5 minutes at 350 x g and the cell pellet resuspended to a final volume of approximately 10 ml of HEPES-buffered saline/flask. The cell suspension is maintained at room temperature prior to use. The fluorescence of the fura-2 loaded NG108-15 cells is measured at an excitation wavelength of 340 nm (10 nM slit) and an emission wavelength of 500 nm (10 nM slit) in a Perkin-Elmer LS-5 fluorescence spectrophotometer fitted with a magnetic stirrer and a thermostatted cell holder. An aliquot of the cell suspension (1.37 ml) is placed in a cylindrical glass cuvette (internal diameter of 8 mm) containing a teflon coated stir bar and warmed to 37°C in a water bath. After 5 minutes, the cuvette is placed in the cell holder of the fluorometer and stirring is initiated just prior to the addition of a test sample. Routinely, a test sample (0.014 ml of a 100-fold concentration solution) is added to the cuvette 30 seconds prior to the addition of 1 X 10⁻⁹ M bradykinin. Fluorescence is recorded continuously during the addition of the test sample and bradykinin. Following completion of the fluorescence measurements, the cells are lysed with Triton X-100 at a final concentration of 10% (v/v) and the fluorescence of the Ca²⁺ saturated fura-2 (Fmax; fluorescence in the presence of 1 mM Ca²⁺) and the Mn²⁺-quenched fura-2 (autofluorescence (AF); fluorescence in the presence of 2 mM Mn²⁺) determined. […]
# Male CF-1 mice = assay: Mouse abdominal constriction test (phenylquinone-induced writhing); format: in vivo; settings: for Change from Control (%): I.P.; for bradykinin agonist / antagonist activity in the assay: result in words, mouse abdominal constriction assay
# Experimental: Compounds of the present invention are tested for analgesic activity using the mouse abdominal constriction assay. This assay is described in Hendershot, L.C., & J. Forsaith, "Antagonism of the Frequency of Phenylquinone-induced Writhing in the Mouse by Weak Analgesics and Nonanalgesics", J. Pharmacol., Vol. 125, (1959), pp. 237-240, and in Methods in Narcotics Research, S. Ehrenpreis and A. Neidle, (eds.), Marcel Dekker, Inc., New York (pub.), 1975, pp. 64-65, the disclosures of both these references being incorporated herein in their entirety by reference.
# Male CF-1 mice (Charles River Breeding Laboratories, Inc.), weighing approximately 20 grams and food fasted overnight, are used in these assays. Test compounds are prepared for intraperitoneal (i.p.) injection, with compounds of the present invention being prepared in distilled deionized water so that the appropriate dose is given in 0.2 mls to a 20 gram mouse.
# An i.p. injection of 0.02% phenylquinone (2.5 mg/kg) is given at a concentration of 0.25 ml/20 grams body weight. Five minutes later the mice receive an i.p. injection of test compound. Five minutes after the i.p. injection of test compound, the number of full body writhes are counted for the succeeding ten minutes. Percent analgesia in this assay is calculated as follows: [formula]
# The mouse abdominal constriction assay was used to measure the antagonist activity of peptides of the present invention and related peptides as shown in Table 2: Table 2
# guinea pig ileum = assay: Guinea pig ileum assay (muscle contraction); settings: negative log of the dose causing half maximal contraction
# Experimental: The bradykinin antagonists are assayed on guinea pig ileum for inhibition of the muscle-contracting activity of bradykinin, according to the commonly accepted assay method for bradykinin and related kinins as described in Stewart, J.M., "Chemistry and Biological Activity of Peptides Related to Bradykinin", Chapter V of Bradykinin, Kallidin and Kallikrein, (Handbook of Expt. Pharmacol.), E. G. Erdoes (ed.), Vol 25, Springer Verlag (pub.), 1970, pp. 242-243. The inhibition potencies are determined on isolated guinea pig ileum, according to the commonly accepted manner described for antagonists of biologically active compounds in Schild, H.O., "pA, a New Scale for the Measurement of Drug Antagonism", Br. J. Pharmacol., Vol. 2, No. 3 (1947), pp. 189-206). In the assay, a dose-response curve is determined for the reference substance bradykinin. The dose of bradykinin which produces a half maximal contraction of tissue is the ED₅₀ dose. An amount of bradykinin equivalent to twice the ED₅₀ dose is administered to the tissue 30 seconds after the start of incubation of the tissue with a dose of antagonist. Doses of antagonist are increased in this protocol until pre-incubation with a dose of antagonist reduces the contraction in response to the double ED₅₀ dose of bradykinin to response of a single ED₅₀ dose of bradykinin. […]
Compound,agonist / antagonist activity in this assay (Bradykinin receptor),bradykinin agonist / antagonist activity in the assay (Male CF-1 mice),Change from Control (%) (Male CF-1 mice; Dose 50 mg/kg),other results
"N=C(N)NCCC[C@H](NC(=O)[C@H](Cc1ccccc1)NC(=O)[C@@H](Cc1ccccc1)NC(=O)[C@H](CO)NC(=O)[C@H](Cc1ccccc1)NC(=O)CNC(=O)[C@@H]1C[C@@H](O)CN1C(=O)[C@@H]1CCCN1C(=O)[C@@H](N)CCCNC(=N)N)C(=O)O [Compound 1, H-Arg-Pro-Hyp-Gly-Phe-Ser-DPhe-Phe-Arg-OH, reference compound] (H-RP[Hyp]GFS[dF]FR-OH)",high agonist (bradykinin-like) activity,bradykinin agonist,,"IC₅₀ (Bradykinin receptor; inhibition by 50% of the increase in [Ca²⁺]i induced by 1 X 10⁻⁹M bradykinin): Partial Agonist*; Change from Control (%) (Male CF-1 mice; Dose 25 mg/kg, negative value = agonist): -31%"
H-DArg-Arg-Pro-Hyp-Gly-Phe-Ser-DPhe-Phe-Arg-OH [Compound 5],small amount of agonist activity,,,agonist activity (Bradykinin receptor; printed beside the IC₅₀): 10%
H-Arg-Pro-Aap-Gly-Phe-Ser-DPhe-Phe-Arg-OH [Compound 4],,bradykinin antagonist activity,46%,
"N=C(N)NCCC[C@H](NC(=O)[C@H](Cc1ccccc1)NC(=O)[C@@H](Cc1ccccc1)NC(=O)[C@H](CO)NC(=O)[C@H](Cc1ccccc1)NC(=O)CNC(=O)[C@H](CC(N)=O)NC(=O)[C@@H]1CCCN1C(=O)[C@@H](N)CCCNC(=N)N)C(=O)O [Compound 2, H-Arg-Pro-Asn-Gly-Phe-Ser-DPhe-Phe-Arg-OH] (H-RPNGFS[dF]FR-OH)",Compounds 2 and 6 are peptides of the present invention and both exhibit only antagonist (no agonist) activity in this assay.,bradykinin antagonist activity,57%,
"bradykinin (RPPGFSPFR; Bradykinin; UniProt P01042 381-389, looked up) [naturally occurring agonist nonapeptide]",,,,"pD2 value (guinea pig ileum): 7.4; [Ca²⁺]i at maximally effective concentration (Bradykinin receptor; 1 X 10⁻⁶M bradykinin, basal concentration about 260 nM): approximately 1000 nM"
"N=C(N)NCCC[C@@H](N)C(=O)N[C@@H](CCCNC(=N)N)C(=O)N1CCC[C@H]1C(=O)N[C@@H](CC(N)=O)C(=O)NCC(=O)N[C@@H](Cc1ccccc1)C(=O)N[C@@H](CO)C(=O)N[C@H](Cc1ccccc1)C(=O)N[C@@H](Cc1ccccc1)C(=O)N[C@@H](CCCNC(=N)N)C(=O)O [Compound 6, H-DArg-Arg-Pro-Asn-Gly-Phe-Ser-DPhe-Phe-Arg-OH] (H-[dR]RPNGFS[dF]FR-OH)",Compounds 2 and 6 are peptides of the present invention and both exhibit only antagonist (no agonist) activity in this assay.,,,
"N=C(N)NCCC[C@H](NC(=O)[C@H](Cc1ccccc1)NC(=O)[C@@H](Cc1ccccc1)NC(=O)[C@H](CO)NC(=O)[C@H](Cc1ccccc1)NC(=O)[C@H]1CCCN1C(=O)[C@H](CC(N)=O)NC(=O)[C@@H]1CCCN1C(=O)[C@@H](N)CCCNC(=N)N)C(=O)O [Compound 3, H-Arg-Pro-Asn-DPro-Phe-Ser-DPhe-Phe-Arg-OH] (H-RPN[dP]FS[dF]FR-OH)",,bradykinin antagonist activity,72% and 61%,
